{
  "source": "patent US12171230B2",
  "about": "“Herbicidal compositions” (Bayer Aktiengesellschaft, priority 2018, dated 2024)",
  "format_in_all_cases": "in vivo",
  "key": {"Bidens pilosa": {"test_system": "Bidens pilosa", "assay": "Post-emergence herbicidal action against Bidens pilosa", "conditions": "for Herbicidal action / Herbicidal action against Bidens pilosa: 21 DAT", "description": "(§1) When the observed efficacies exceed the formal sum total of the values of the tests with individual applications, they also exceed the expected value according to Colby, which is calculated using the formula below and is likewise regarded as an indication of synergism (cf. S. R. Colby; in Weeds 15 (1967) p. 20 to 22): E^C=A+B−([…])\n(§2) Here: • A=efficacy of the active compound (A) in % at an application rate of a g a.i./ha; • B=efficacy of the active compound (B) in % at an application rate of b g a.i./ha; • E^C=expected value of the effect of the combination (A)+(B) in % at the combined application rate a+b g a.i./ha.\n(§3) Seeds or rhizome pieces of mono- and dicotyledonous weeds are placed in sandy loam in pots, covered with soil and grown in a greenhouse under good growth conditions (temperature, air humidity, water supply). Three weeks after sowing, the test plants were treated at the three-leaf stage with the compositions according to the invention. The compositions according to the invention formulated as spray powders or as emulsion concentrates were sprayed onto the green plant parts in various dosages with an application rate of 300 to 800 l/ha of water (equivalent). After the test plants have been left to stand in the greenhouse under optimal growth conditions for about 3 to 4 weeks, the action of the preparations is scored visually in comparison to untreated controls. The compositions according to the invention also have good post-emergence herbicidal activity against a broad spectrum of economically important gramineous and broadleaf weeds."}, "Kochia scoparia [1]": {"test_system": "Kochia scoparia", "assay": "Post-emergence herbicidal action against Kochia scoparia", "conditions": "21 DAT"}, "Echinochloa crus-galli": {"test_system": "Echinochloa crus-galli", "assay": "Post-emergence herbicidal action against Echinochloa crus-galli", "conditions": "21 DAT", "description": "as §1, §2, §3"}, "Abutilon theophrasti [2]": {"test_system": "Abutilon theophrasti", "assay": "Post-emergence herbicidal action against Abutilon theophrasti", "excerpt": "(§4) The following abbreviations are used in the description and the tables that follow: • g of a.i./ha=grams of active substance (active ingredient) (=100% active compound) per hectare; • The sum total of the effects of the individual applications is reported under E^A; • expected values according to Colby are each reported under E^C.\n(§5) The rating period is reported in days after application (DAT)."}, "Kochia scoparia [3]": {"test_system": "Kochia scoparia", "assay": "Post-emergence herbicidal action against Kochia scoparia", "excerpt": "as §4, §5"}, "Eleusine indica": {"test_system": "Eleusine indica", "assay": "Post-emergence herbicidal action against Eleusine indica", "conditions": "21 DAT; 1.7 g a.i./ha"}, "Setaria viridis": {"test_system": "Setaria viridis", "assay": "Post-emergence herbicidal action against Setaria viridis", "conditions": "for Herbicidal action / Herbicidal action against Setaria viridis: 21 DAT", "description": "as §1, §2, §3"}, "Amaranthus palmeri": {"test_system": "Amaranthus palmeri", "assay": "Post-emergence herbicidal action against Amaranthus palmeri", "conditions": "21 DAT; for Herbicidal action: 5 g a.i./ha", "summary_of_the_method": "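Greenhouse pot test, sandy loam; weeds from seed or rhizome. Post-emergence spray at three-leaf stage (3 wk after sowing), 300–800 l/ha water, various dosages. Visual % efficacy vs untreated at 3–4 wk; Colby expected value used to flag synergism.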"}, "Sorghum halepense": {"test_system": "Sorghum halepense", "assay": "Post-emergence herbicidal action against Sorghum halepense", "description": "as §1, §2, §3"}, "Abutilon theophrasti [4]": {"test_system": "Abutilon theophrasti", "assay": "Post-emergence herbicidal action against Abutilon theophrasti", "conditions": "21 DAT"}, "Pharbitis purpurea": {"test_system": "Pharbitis purpurea", "assay": "Post-emergence herbicidal action against Pharbitis purpurea", "description": "as §1, §2, §3"}, "Brachiaria platyphylla": {"test_system": "Brachiaria platyphylla", "assay": "Post-emergence herbicidal action against Brachiaria platyphylla", "description": "as §1, §2, §3"}, "Digitaria sanguinalis": {"test_system": "Digitaria sanguinalis", "assay": "Post-emergence herbicidal action against Digitaria sanguinalis", "description": "as §1, §2, §3"}},
  "data": [
    {"smiles": "C=CC1(C(=O)N[C@H]2CO[C@@H](C(=O)OC)C2)CC(c2cc(Cl)cc(Cl)c2)=NO1", "note": "(relative stereo) [Compound A2, methyl rel-(2R,4R)-4-[[3-(3,5-dichlorophenyl)-5-vinyl-4H-isoxazole-5-carbonyl]amino]tetrahydrofuran-2-carboxylate]", "values": [
      {"measurement": "Herbicidal action", "setting": "Bidens pilosa; 5 g a.i./ha", "result": 45, "unit": "%"},
      {"measurement": "Herbicidal action", "setting": "Bidens pilosa; 15 g a.i./ha", "result": 50, "unit": "%"},
      {"measurement": "Herbicidal action", "setting": "Bidens pilosa; 45 g a.i./ha", "result": 70, "unit": "%"},
      {"measurement": "Herbicidal action", "setting": "Kochia scoparia [1]; 5 g a.i./ha", "result": 40, "unit": "%"},
      {"measurement": "Herbicidal action", "setting": "Echinochloa crus-galli; 15 g a.i./ha", "result": 80, "unit": "%"},
      {"measurement": "Herbicidal action 21 DAT against Abutilon theophrasti", "setting": "Abutilon theophrasti [2]; g of a.i./ha: 90, 30, 15, 15 + 90, 15 + 30", "result": 75, "unit": "%"},
      {"measurement": "Herbicidal action 21 DAT against Kochia scoparia", "setting": "Kochia scoparia [3]; g of a.i./ha by row: 30, 5, 5 + 30", "result": 40, "unit": "%"},
      {"measurement": "Herbicidal action", "setting": "Eleusine indica", "result": 10, "unit": "%"},
      {"measurement": "Herbicidal action", "setting": "Setaria viridis; 1.7 g a.i./ha", "result": 10, "unit": "%"},
      {"measurement": "Herbicidal action", "setting": "Amaranthus palmeri", "result": 45, "unit": "%"}
    ]},
    {"smiles": "CC(C)OC(=O)[C@H]1C[C@@H](NC(=O)C2(C)CC(c3cccc(F)c3)=NO2)CO1", "note": "(relative stereo) [Compound A4, isopropyl rel-(2R,4R)-4-[[3-(3-fluorophenyl)-5-methyl-4H-isoxazole-5-carbonyl]amino]tetrahydrofuran-2-carboxylate]", "values": [
      {"measurement": "Herbicidal action", "setting": "Bidens pilosa; 5 g a.i./ha", "result": 10, "unit": "%"},
      {"measurement": "Herbicidal action against Bidens pilosa", "setting": "Bidens pilosa; 5 g of a.i./ha", "result": 10, "unit": "%"},
      {"measurement": "Herbicidal action", "setting": "Bidens pilosa; 15 g a.i./ha", "result": 10, "unit": "%"},
      {"measurement": "Herbicidal action against Bidens pilosa", "setting": "Bidens pilosa; 15 g of a.i./ha", "result": 10, "unit": "%"},
      {"measurement": "Herbicidal action", "setting": "Bidens pilosa; 45 g a.i./ha", "result": 30, "unit": "%"},
      {"measurement": "Herbicidal action against Sorghum halepense", "setting": "Sorghum halepense; 21 DAT, 15 g of a.i./ha", "result": 10, "unit": "%"},
      {"measurement": "Herbicidal action against Abutilon theophrasti", "setting": "Abutilon theophrasti [4]; 5 g of a.i./ha", "result": 10, "unit": "%"},
      {"measurement": "Herbicidal action against Abutilon theophrasti", "setting": "Abutilon theophrasti [4]; 15 g of a.i./ha", "result": 10, "unit": "%"},
      {"measurement": "Herbicidal action against Abutilon theophrasti", "setting": "Abutilon theophrasti [4]; 45 g of a.i./ha", "result": 20, "unit": "%"},
      {"measurement": "Herbicidal action", "setting": "Kochia scoparia [1]; 5 g a.i./ha", "result": 10, "unit": "%"},
      {"measurement": "Herbicidal action", "setting": "Kochia scoparia [1]; 15 g a.i./ha", "result": 10, "unit": "%"},
      {"measurement": "Herbicidal action", "setting": "Echinochloa crus-galli; 5 g a.i./ha", "result": 10, "unit": "%"},
      {"measurement": "Herbicidal action against Echinochloa crus-galli", "setting": "Echinochloa crus-galli; 15 g of a.i./ha", "result": 20, "unit": "%"},
      {"measurement": "Herbicidal action", "setting": "Eleusine indica", "result": 20, "unit": "%"},
      {"measurement": "Herbicidal action against Setaria viridis", "setting": "Setaria viridis; 1.5 g of a.i./ha", "result": 10, "unit": "%"},
      {"measurement": "Herbicidal action", "setting": "Setaria viridis; 5 g a.i./ha", "result": 20, "unit": "%"},
      {"measurement": "Herbicidal action", "setting": "Setaria viridis; 15 g a.i./ha", "result": 60, "unit": "%"},
      {"measurement": "Herbicidal action against Setaria viridis", "setting": "Setaria viridis; 15 g of a.i./ha", "result": 60, "unit": "%"},
      {"measurement": "Herbicidal action", "setting": "Pharbitis purpurea; 21 DAT, 15 g a.i./ha", "result": 60, "unit": "%"},
      {"measurement": "Herbicidal action against Amaranthus palmeri (res.)", "setting": "Amaranthus palmeri; 15 g of a.i./ha", "result": 10, "unit": "%"},
      {"measurement": "Herbicidal action against Amaranthus palmeri (res.)", "setting": "Amaranthus palmeri; 45 g of a.i./ha", "result": 30, "unit": "%"},
      {"measurement": "Herbicidal action", "setting": "Amaranthus palmeri; (res.)", "result": 10, "unit": "%"}
    ]},
    {"smiles": "CCc1cccc(C)c1N(C(=O)CCl)[C@@H](C)COC", "note": "[(B2.64) S-Metolachlor]", "values": [
      {"measurement": "Herbicidal action 21 DAT against Brachiaria platyphylla", "setting": "Brachiaria platyphylla; 150 g of a.i./ha", "result": 10, "unit": "%"},
      {"measurement": "Herbicidal action 21 DAT against Brachiaria platyphylla", "setting": "Brachiaria platyphylla; 450 g of a.i./ha", "result": 25, "unit": "%"},
      {"measurement": "Herbicidal action 21 DAT against Bidens pilosa", "setting": "Bidens pilosa; 150 g of a.i./ha", "result": 10, "unit": "%"},
      {"measurement": "Herbicidal action 21 DAT against Bidens pilosa", "setting": "Bidens pilosa; 450 g of a.i./ha", "result": 20, "unit": "%"},
      {"measurement": "Herbicidal action 21 DAT against Sorghum halepense", "setting": "Sorghum halepense; 450 g of a.i./ha", "result": 40, "unit": "%"},
      {"measurement": "Herbicidal action 21 DAT against Digitaria sanguinalis", "setting": "Digitaria sanguinalis; 50 g of a.i./ha", "result": 10, "unit": "%"},
      {"measurement": "Herbicidal action 21 DAT against Digitaria sanguinalis", "setting": "Digitaria sanguinalis; 150 g of a.i./ha", "result": 40, "unit": "%"},
      {"measurement": "Herbicidal action 21 DAT against Abutilon theophrasti", "setting": "Abutilon theophrasti [2]; 150 g of a.i./ha", "result": 0, "unit": "%"},
      {"measurement": "Herbicidal action 21 DAT against Abutilon theophrasti", "setting": "Abutilon theophrasti [2]; 450 g of a.i./ha", "result": 10, "unit": "%"},
      {"measurement": "Herbicidal action 21 DAT against Kochia scoparia", "setting": "Kochia scoparia [3]; 150 g of a.i./ha", "result": 0, "unit": "%"},
      {"measurement": "Herbicidal action 21 DAT against Kochia scoparia", "setting": "Kochia scoparia [3]; 450 g of a.i./ha", "result": 10, "unit": "%"},
      {"measurement": "Herbicidal action 21 DAT against Setaria viridis", "setting": "Setaria viridis; 50 g of a.i./ha", "result": 30, "unit": "%"},
      {"measurement": "Herbicidal action 21 DAT against Pharbitis purpurea", "setting": "Pharbitis purpurea; 150 g of a.i./ha", "result": 0, "unit": "%"},
      {"measurement": "Herbicidal action 21 DAT against Pharbitis purpurea", "setting": "Pharbitis purpurea; 450 g of a.i./ha", "result": 10, "unit": "%"}
    ]}
  ]
}
